In series [1] the test system is tumor-associated lymphocyte (TAL). To be noted: previous studies (Peoples et al. 1998); cited from earlier work.
Series [2] is described as follows: Local reactions (LR) 48-72 hours after booster. Particulars: 500 mcg peptide + 250 mcg GM-CSF.
Source text: Therefore, to assess the use of the attenuated E39′ peptide as a booster, E39-vaccinated patients described in Example 1 were randomized to receive either E39 or E39′ as a booster to determine the effect on long-term E39-specific immunity. Patients in the VG received six intradermal E39 injections as described in Example 1 as a primary vaccination schedule (PVS). At six months (B1) and at twelve months (B2) after completion of the PVS, patients received either 500 mcg of E39′ and 250 mcg GM-CSF or 500 mcg E39 and 250 mcg of GM-CSF as a booster.
Local reactions (LR) were recorded 48-72 hours after each booster. Immune response was determined by measurement of E39 specific CTL levels using a Dextramer reagents in accordance with the manufacturer's instructions (Immudex Limited, Copenhagen, Denmark) as previously described (e.g., Tario et al. Cytometry B Clin. Cytom. 2015; 88B:6-20; Baba J. Transl Med. 2010; 8:84), at RO (baseline pre-vaccination), RC1 (1 month after completion of PVS), RC6 (6 months after completion of PVS and before booster), RC7 (1 month after booster) and RC12 (6 months after booster and 12 months after completion of PVS).
Series [3] can be described thus: Local and systemic toxicity (NCI CTCAE v4.03) of E39+GM-CSF vaccination. Format: in vivo, human. The protocol: Standard local and systemic toxicities were collected and graded per the National Cancer Institute Common Terminology Criteria for Adverse Events, v4.03 toxicity scale. For the vaccine series (one vaccine/month for six months), patients were monitored closely for one hour after vaccine inoculation with questioning, serial exams and vital signs every 15 minutes to observe for a hypersensitivity reaction. Systemic toxicity and inoculation site local reactions were also determined after 48-72 hours.

Ends that are not written are not given here.

We go through three substances from patent publication US11338025B2, “Vaccine therapy for treatment of endometrial and ovarian cancer” (The Henry M. Jackson Foundation for the Advancement of …, priority 2016, dated 2022).

“E41: FRα-derived immunogenic peptide (FRα 245-253) of previous studies (LLSLALMLL; UniProt P15328 245-253, looked up, fragment)”: in series [1], the “effect on TAL proliferation and anti-tumor function” value was “capable of enhancing tumor-associated lymphocyte (TAL) proliferation and anti-tumor function”.

For the substance EIWTFSTKV [E39′, EIWTFSTKV], the “average LR” value in series [2] (B1 booster (6 months after PVS)) was 79.7±14.0 mm; in series [2] (B2 booster (12 months after PVS)), 74.1±11.5 mm.

Consider EIWTHSYKV [E39, EIWTHSYKV], for which the “tolerability of the vaccine” value in series [3] (E39+GM-CSF, disease-free endometrial and ovarian cancer patients) was “well tolerated”. Also, in series [3] (in vivo), the “Local and systemic toxicities” value is recorded as “mild”; the “patients experiencing grade 3 toxicity” value was 1 patient.
